Data from paper PMC6290777, “Inhalation of the prodrug PI3K inhibitor CL27c improves lung function in asthma and fibrosis” (Nature Communications, 2018).

What was measured:
Assay type in all cases: in vivo, BALB/c mice
[1] = tested on: OVA-induced acute allergic asthma; assay: OVA-induced acute allergic asthma model; settings: systemic treatment, i.p.
Method: On Days 1 and 14, BALB/c mice (6–8 weeks) received an intraperitoneal injection (i.p.) of a solution containing 0.5 mg/ml OVA and 5 mg/ml Alum (described in Fig. 2). Untreated controls were injected with a solution of 5 mg/ml Alum. […] Untreated control groups included mice challenged with PBS alone. On day 29, mice were sacrificed, and samples were collected for further analysis.
(§1) BALF was performed to obtain leukocytes from alveolar space. The trachea was exposed and a 1.7-mm-outside-diameter polyethylene catheter was inserted. BAL was performed by washing the lungs three-times with three different 500 µl aliquots of PBS. BALF samples were centrifuged at 600 × g for 10 min at 4 °C on a histology glass slide and stained with Diff Quick (MICROPTIC, #DQ-ST). The number of leukocytes and differential counts of different population were obtained evaluating the percentage leukocyte populations over the total cell number.
(§2) IL-5, IL-13, eotaxin, TGF-β, KC, IL-17A, and MCP-1 levels in the BALF and anti-OVA IgE levels in serum were measured by ELISA technique using commercial DuoSet kits R&D Systems according to the instructions of the manufacturer. Results were expressed in levels of cytokines per ml of […] (pg/ml) or arbitrary units (A.U.).
Immunohistochemistry for CD18 was performed using the streptavidin-biotin-peroxidase method in formalin-fixed, paraffin-embedded tissue sections (5 µm thick) mounted on poly-L-lysine-coated microscope slides. Lung cross-sections were deparaffinized and rehydrated through xylene and graded alcohols. After antigen retrieval, endogenous peroxidase was blocked (15 min) with 3% (v/v) hydrogen peroxide and washed in phosphate-buffered saline (PBS). Sections were incubated overnight (4 °C) with primary rabbit anti-CD18 antibody (Acris Antibodies GmbH, Germany, Cat. Number B0842-1) diluted 1:400 in PBS plus bovine serum albumin (PBS-BSA) or rabbit anti/PAkt (S473) diluted 1:100 in PBS/BSA. The slides were then incubated with biotinylated goat anti-rabbit antibody (Dako Agilent Pathology Solution, USA) diluted 1:1000 in PBS/BSA. After washing, the slides were incubated with avidin-biotin-horseradish peroxidase conjugate (Dako Agilent Pathology Solution, USA) for 30 min, according to the manufacturer’s instructions. CD18 and PAkt-positive cells were visualized with the chromogen 3,3′-diaminobenzidine (DAKO liquid DAB + substrate chromogen system, CA, USA). Slides were counterstained with Harry’s hematoxylin, dehydrated in a graded alcohol series, cleared in xylene, and cover slipped.
Lung, liver, and heart samples were collected for western blot detection of akt phosphorilation levels. Protein samples were resolved by 10% SDS-PAGE and transferred on to PVDF (Immobilon™-P) membranes. The membranes were blocked with 5% BSA in 1x TBS with 0.3% Tween 20 for 30 min at […]. Then, the membranes were incubated overnight at 4 °C with primary antibodies (phosphorylated Akt serine 473, 1:1000, Cell Signaling Technology, Cat. Number 4060) and 1 h with HRP-conjugated secondary antibody (1:10000). The blots were visualized in ECL solution for 1 min and images were captured on Luminescent Image Analyser (ChemiDoc Imaging Systems, Bio-Rad Laboratories, USA). For loading control, the blots were striped and reassessed with pan Akt (1:1000) antibody. For quantification, specific phosphorylation was calculated as the ratio of signals for phosphorylated Akt to the signal of total Akt detected. Values of unstimulated samples were set to 1.0. Uncropped scans of the most important blots are provided as a supplementary figure in the Supplementary Information (Supplementary Fig. 15).

[2] = tested on: OVA-induced chronic allergic asthma; assay: OVA-induced chronic allergic asthma model; settings: CL27c 2 mg/ml aerosol or dexamethasone 5 mg/kg
Method: as §1
(§3) Mice were anesthetized with a subcutaneous injection of ketamine and xylazine (130 mg/Kg ketamine and 8.5 mg/Kg xylazine) to maintain spontaneous breathing under anesthesia. Mice were tracheostomized, placed in a body plethysmograph and connected to a computer-controlled ventilator (Forced Pulmonary Maneuver System®, Buxco Research Systems©, Wilmington, North Carolina USA). First, an average breathing frequency of 160 breaths/min was imposed to the anesthetized animal by a pressure-controlled ventilation until a regular breathing pattern and complete expiration at each breathing cycle was obtained. Under mechanical respiration, respiratory flow and airway pressure were measured to compute dynamic compliance (Cdyn) and lung resistance (RL). To measure the TLC, pressure–volume maneuvers were performed, where lungs were inflated to a standard pressure of +30 cm H2O and then let slowly exhale until a negative pressure of −30 cm H2O was reached. To measure the FEV Fast-Flow Volume maneuvers was performed. In this maneuver, lungs were first inflated to +30 cm H2O (TLC) and, immediately, a negative pressure (−30 cm H2O) was applied in order to enforce expiration. To evaluate AHR, the same mice used in previous maneuvers (basal condition) received Metacholine, 1 mg/Kg (Acetyl-β-methylcholine chloride, A-2251, Sigma-Aldrich St.Louis, MO,USA) i.v., and 20 sec after, a new set of maneuvers were conducted to assess RL changes. Suboptimal maneuvers were rejected and for each test in every single mouse at least three acceptable maneuvers were conducted to obtain a reliable mean for all numeric parameters.
On day 1, BALB/c mice received systemic immunization by subcutaneous injection of 10 µg of chicken egg ovalbumin (OVA grade V, >98% pure; Sigma, St Louis, MO) diluted in 2 mg/mL Al(OH)3 followed by a booster injection at the day 14 (described in fig. 3). Nasal challenges were performed starting at the day 28, by inhalational exposure to aerosolised ovalbumin (1% ovalbumin in saline 0,9%) for 20 min per day, in alternated days during 16 days (day 28, 30, 32, 34, 36, 38, 40, 42 and 44). At the same time, mice received daily treatment from day 28 to 44 with CL27c (2 mg/ml dissolved in 0.5 % tylaxopol/saline solution, aerosolized for 30′) or vehicle (0.5% tyloxapol/saline solution, aerosolized for 30′), or dexamethasone (5 mg/kg i.p. injection). Untreated control groups included mice challenged with PBS alone. On day 45, mice were sacrificed, and samples were collected for further analysis.
as §2
The left lung was removed and fixed in 4% neutral phosphate-buffered formalin (pH 7.4)[10]. The tissues were dehydrated gradually in ethanol, embedded in paraffin, cut into 4 µm sections, stained with H&E, Gomori’s trichrome and periodic acid schiff (PAS), and examined under light microscopy by a pathologist in a double blinded manner. Images of lung sections were captured with a digital camera (Optronics DEI-470) connected to a microscope (Olympus IX70) with a magnification of ×40 or ×100. […]

[3] = tested on: glucocorticoid-resistant neutrophilic asthma; assay: Glucocorticoid-resistant asthma model; settings: CL27c 2 mg/ml aerosol; dexamethasone 5 mg/kg i.p.
Method: as §1, §3, §2
On day 1 BALB/c mice received systemic immunization by subcutaneous injection of 20 µg of chicken egg ovalbumin (OVA grade V, >98% pure; Sigma, St Louis, MO) in saline, emulsified in 75 µL CFA (Complete Freund’s Adjuvant; Sigma-Aldrich) (Figure 5)[52]. On days 25–28 mice were exposed to aerosolised ovalbumin (1% in saline) for 20 min per day. Mice were exposed during 30 min to aerosolized CL27c (2 mg/ml dissolved in 0.5 % tylaxopol/saline solution) or vehicle (0.5% tyloxapol/saline solution), or to systemic treatment with dexamethasone (5 mg/kg i.p. injection). Untreated control groups included mice challenged with PBS alone. On day 29, mice were sacrificed, and samples were collected for further analysis.
The left lung was removed and fixed in 4% neutral phosphate-buffered formalin (pH 7.4)[10]. The tissues were dehydrated gradually in ethanol, embedded in paraffin, cut into 4 µm sections, stained with H&E, Gomori’s trichrome and periodic acid schiff (PAS), and examined under light microscopy by a pathologist in a double blinded manner. Images of lung sections were captured with a digital camera (Optronics DEI-470) connected to a microscope (Olympus IX70) with a magnification of ×40 or ×100. Inflammation was scored according to modification of existing protocols[53] and to the histopathology criteria reported in Supplementary Table 4.

C[C@@H]1C[C@H]2[C@@H]3CCC4=CC(=O)C=C[C@]4(C)[C@@]3(F)[C@@H](O)C[C@]2(C)[C@@]1(O)C(=O)CO [Dexamethasone, reference compound]
BALF accumulation of inflammatory cells [1]: significantly reduced this infiltration | accumulation of inflammatory cells in peribronchial and perivascular spaces [2]: significantly decreased | lung function: lung resistance (RL) and dynamic compliance (Cdyn) [2]: normalize lung function | peribronchial fibrosis (fibrotic airway remodeling) [2]: significantly reduced | histopathology: overall score of lung damage / tissue inflammation [3]: failed to provide an effect
